Laboratory results published in patent US20070161568A1, “Use of GLP-1 peptides” (Novo Nordisk A/S, priority 1996, published 2007).
Read-outs that look alike come from different tables or passages of the source. No end group written: not given here.

What was measured:
food intake in rats = settings: cited from earlier work
[1] = tested on: food intake in normal human subjects; experiment: iv infusion of GLP-1(7-36)amide in a double-blind crossover trial: visual analogue scale ratings and ad libitum lunch energy intake; type: in vivo
Description: The effect of GLP-1(7-36)amide on food intake in normal human subjects.
Healthy human volunteers (20 subjects) were in a double-blind crossover trial given an iv infusion of 50 pmol/(kg·h) of GLP-1(7-36)amide or saline on separate, but otherwise identical experimental days. The infusion was started at 9.00 and lasted until 15.00. At 9.45 the subjects received a fixed amount of breakfast and at 14.15 they had lunch of an identical composition but ad libitum. The subjects rated their feeling of satiety, hunger, fullness and appetite on a visual analogue scale every half hour. The results are given below: • Satiety: GLP-1>Saline, p=0.006 • Hunger: GLP-1<Saline, p=0.007 • Fullness: GLP-1>Saline, p=0.010 • Appetite: GLP-1<Saline, p=0.007
The energy intake of each subjects was measured. The intakes were 3.9 MJ with GLP-1 and 4.3 MJ with Saline resulting in a p-value of 0.009.

[2] = tested on: appetite suppression in mice; experiment: appetite suppression in mice: sucrose consumption, tested immediately after ip injection (Example 2); type: in vivo; settings: 85 micrograms (equivalent to 3.4 mg/kg), 10 minute period, p-value 0.002
Experimental: Test method for measuring appetite suppression in mice.
Mice were deprived of their normal food for two days and given free access to a 20% sucrose solution on the first day of food deprivation. After the two day food deprivation period, the mice were injected intraperitoneally with 0.5 ml of a solution containing the test substance. Immediately after injection, individual mice were placed in one of eight 15 cm square test boxes with a stainless steel grid floor and a glass drinking tube which projected into the box. […] Consumption of the sucrose solution was measured over a 10 minute period by electronically recording the total amount of contact with the sucrose solution during the test session. The degree of appetite suppression produced by a given test substance was determined by statistical comparison of the mean duration of sucrose consumption by control (vehicle treated) mice with that of mice treated with a test substance. The degree of appetite suppression in a treated group of mice was expressed as percent difference between the test and control group's response duration means. […]

[3] = healthy human volunteers, iv infusion 50 pmol/(kg·h) vs saline, p=0.007

For “GLP-1(1-36)amide (HDEFERHAEGTFTSDVSSYLEGQAAKEFIAWLVKGR-NH2; UniProt P01275 92-127, looked up, fragment) [GLP-1 fragment 1-36 as C-terminal amide, literature result]”, the “effect on food intake” value (food intake in rats; route not stated, Tang-Christensen et al.) is listed as “no effect”.
In the case of “GLP-1(7-36)amide (HAEGTFTSDVSSYLEGQAAKEFIAWLVKGR-NH2; UniProt P01275 98-127, looked up) [fragment 7-36 of GLP-1 as C-terminal amide]”, the “Satiety (visual analogue scale)” value ([1]; healthy human volunteers, iv infusion 50 pmol/(kg·h) vs saline, rated every half hour, p=0.006) was “GLP-1>Saline”, the “Appetite (visual analogue scale)” value [1, 3] was “GLP-1<Saline” and the “Hunger (visual analogue scale)” value [1, 3] was “GLP-1<Saline”. For the same substance, the “Fullness (visual analogue scale)” value ([1]; healthy human volunteers, iv infusion 50 pmol/(kg·h) vs saline, p=0.010) was “GLP-1>Saline” and the “suppression of sucrose consumption” value [2] was 60%.
In the case of “GLP-1: proglucagon fragment 72-108, commonly referred to as GLP-1(1-37) or just GLP-1; in b61 it means GLP-1(7-36)amide”, the energy intake ([1]; ad libitum lunch, iv infusion 50 pmol/(kg·h), saline 4.3 MJ, p-value 0.009) is given as 3.9 mJ, the “effect on food intake” value (food intake in rats; administered intracerebroventricularly, Tang-Christensen et al.) is given as “profound effect” and the “effect on food intake” value (food intake in rats; administered intracerebroventricularly, Turton et al.) is given as “profound effect”. For the same substance, the “effect on food intake” value (food intake in rats; peripheral administration, Turton et al.) was “inactive” and the “effect on food intake” value (food intake in rats; peripherally administered, Tang-Christensen et al.) was “no significant effect”.
